A short description of data set [1]: Mouse brain tissue binding. Type of data set: in vitro ADME.
The target of data set [2] is T1, 5-HT1A (Homo sapiens, UniProt P08908). The experiment in a line: BRET signaling assay: 5-HT1A-mediated activation of heterotrimeric Gi1 (TRUPATH, HEK293-T). To be noted: for Efficacy as %5HT 5-HT1A BRET Gi1: Table 6, commercial ligands. For orientation: Bioluminescence resonance energy transfer reports proximity on the nanometre scale.
Data set [3] addresses T2, 5-HT2A (Homo sapiens, UniProt P28223). The conditions noted are these: for Efficacy as %5HT 5-HT2A BRET Gq: Table 6, commercial ligands.
Data set [4] addresses T3, human 5-HT1A (Homo sapiens, UniProt P08908).
T3 sequence (P08908 1-422): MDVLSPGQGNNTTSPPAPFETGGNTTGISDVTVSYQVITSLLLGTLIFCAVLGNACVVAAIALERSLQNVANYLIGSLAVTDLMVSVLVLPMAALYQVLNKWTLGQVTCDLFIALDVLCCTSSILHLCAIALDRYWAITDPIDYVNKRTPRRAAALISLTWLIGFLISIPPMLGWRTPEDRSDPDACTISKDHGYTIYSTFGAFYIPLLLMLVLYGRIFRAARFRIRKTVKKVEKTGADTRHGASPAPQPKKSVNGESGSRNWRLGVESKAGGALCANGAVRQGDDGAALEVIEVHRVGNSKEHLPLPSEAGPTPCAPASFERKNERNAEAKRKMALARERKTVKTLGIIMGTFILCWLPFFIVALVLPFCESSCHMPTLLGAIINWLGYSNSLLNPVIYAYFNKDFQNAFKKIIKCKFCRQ
The experiment in a line: 5-HT1A-mediated cAMP reduction assay (GloSensor, HEK293-T).

For a further data set, the target named is 5-HT2B (Homo sapiens, UniProt P41595). The experiment in a line: IP1 functional assay 5-HT2B. In kind it is cell-based. To be noted: for Emax: read-out: 5-HT2B (IP1) Emax (%5-HT), Table 3.
Chain of 5-HT2B (P41595 whole entry, species assumed): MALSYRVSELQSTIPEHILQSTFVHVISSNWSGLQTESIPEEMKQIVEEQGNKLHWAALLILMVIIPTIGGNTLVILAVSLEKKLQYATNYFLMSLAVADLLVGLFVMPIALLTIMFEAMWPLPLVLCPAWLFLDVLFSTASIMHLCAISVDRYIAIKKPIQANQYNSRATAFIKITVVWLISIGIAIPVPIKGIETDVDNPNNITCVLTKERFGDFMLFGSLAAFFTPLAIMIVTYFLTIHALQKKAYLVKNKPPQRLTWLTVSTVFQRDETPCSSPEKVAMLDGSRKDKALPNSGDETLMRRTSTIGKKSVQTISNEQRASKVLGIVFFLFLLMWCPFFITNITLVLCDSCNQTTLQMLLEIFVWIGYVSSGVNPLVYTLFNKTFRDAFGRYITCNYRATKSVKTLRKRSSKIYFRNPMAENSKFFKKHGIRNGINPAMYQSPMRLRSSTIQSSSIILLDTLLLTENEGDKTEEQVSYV
For data set [5], the target named is T2, 5-HT2A. The experiment in a line: cell-based. The arrangement: expressed in transfected cells; host or cells: HEK293-T. The conditions noted are these: for Emax: read-out: 5-HT2A (IP1) Emax (%5-HT).
Data set [6] deals with T2, 5-HT2A. The experiment in a line: cell-based.
In data set [7] the target is T1, 5-HT1A. The experiment in a line: cell-based.
The nature of data set [8]: Microsomal stability, human liver microsomes. The conditions noted are these: versus the DMT analogs. In kind it is in vitro ADME. As to the method:
Microsomal incubations were carried out in 96-well plates in 5 aliquots of 30 μL each (one for each time point). Liver microsomal incubation medium comprised of phosphate buffer (100 mM, pH 7.4), MgCl2 (3.3 mM), NADPH (3 mM), glucose-6-phosphate (5.3 mM), glucose-6 phosphate dehydrogenase (0.67 units/ml) with 0.42 mg of liver microsomal protein per ml. In the control reactions the NADPH-cofactor system was substituted with phosphate buffer. Test compounds (2 μM, final solvent concentration 1.6%) were incubated with microsomes at 37° C., shaking at 100 rpm. Each reaction was performed in duplicates. Five time points over 90 minutes were analyzed. The reactions were stopped by adding 5 volumes of methanol containing internal standard to incubation aliquots, followed by protein sedimentation by centrifuging at 5500 rpm for 4 minutes. Supernatants were analyzed using the HPLC system coupled with tandem mass spectrometer. The elimination constant (kel), half-life (t1/2) and intrinsic clearance (Clint) were determined in plot of […] versus time, using linear regression analysis.

Data set [9] deals with T3, human 5-HT1A. The experiment in a line: cell-based.
A further data set addresses T4, 5-HT1A A365N (Homo sapiens, UniProt P08908, A365N).
T4 construct: expressed in transfected cells; host or cells: HEK293-T
T4 sequence (P08908 1-422 A365N): T3 sequence (P08908 1-422) with A365N
The experiment in a line: Gi1 BRET at mutant 5-HT1A A365N. Type of data set: cell-based. To be noted: 5-HT1A A365N^6.55.

A short description of data set [10]: Mouse plasma protein binding. In kind it is in vitro ADME.
Data set [11] is described as follows: Human plasma protein binding. Type of data set: in vitro ADME.

Residue numbers refer to the chain shown, from its start. Values joined by “and” are separate entries in the source; they are usually repeats but may differ in a detail not shown here. Identical values can stand only once. Like-named read-outs stand apart in the source and are kept apart here.

T2 sequence (P28223 whole entry): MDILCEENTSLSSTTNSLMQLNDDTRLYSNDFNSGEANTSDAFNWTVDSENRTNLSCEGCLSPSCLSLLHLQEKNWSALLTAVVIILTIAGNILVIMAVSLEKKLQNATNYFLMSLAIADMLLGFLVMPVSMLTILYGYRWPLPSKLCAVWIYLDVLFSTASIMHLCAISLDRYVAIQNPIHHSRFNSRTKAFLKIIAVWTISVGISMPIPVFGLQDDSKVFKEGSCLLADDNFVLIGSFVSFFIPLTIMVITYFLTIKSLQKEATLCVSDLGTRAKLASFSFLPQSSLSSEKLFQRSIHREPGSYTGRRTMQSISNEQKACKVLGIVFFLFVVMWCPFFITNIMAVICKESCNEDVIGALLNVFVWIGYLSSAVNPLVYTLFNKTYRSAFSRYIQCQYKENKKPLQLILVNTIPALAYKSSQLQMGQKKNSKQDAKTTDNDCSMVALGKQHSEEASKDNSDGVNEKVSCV

`NC(=O)N1c2ccccc2C=Cc2ccccc21` [Carbamazepine]: in [1], the “% Bound Mean” value was 88.2%, the “% Recovery” value amounted to 72%, the “% Unbound” value is 11.8% and the fu is given as 0.118. Further, the “% Compound remaining at 4 h” value in [1] (4 h) was determined as 96%. The “% Bound R1” value in data set [1] (replicate R1) is 89.0%.
On to `NCCc1c[nH]c2ccc(O)cc12` [Compound 5-HT, 5-hydroxytryptamine, reference compound], for which the “Normalized (%5HT) Top Mean BRET Gi1-1A” value on 5-HT1A [2] (Table 2) is listed as 100.0 %5HT. Besides, at 5-HT1A [2], the “Efficacy as %5HT 5-HT1A BRET Gi1” value is 100.0 %5HT. The “Normalized (%5HT) Top Mean BRET Gq-2A” value at 5-HT2A [3] (Table 2) came out at 100.0 %5HT. In addition, on 5-HT2A [3], the “Efficacy as %5HT 5-HT2A BRET Gq” value came to 100.0 %5HT. Also, the “Normalized (%5HT) Top Mean Gio(cAMP) 1A” value at human 5-HT1A [4] (Table 2) came out at 100.0 %5HT. Further, at human 5-HT1A [4] (Table 6, commercial ligands), the “Efficacy as %5HT 5-HT1A cAMP” value worked out at 100.0 %5HT.
What is called EC50 is the concentration at which the effect is half-maximal. The low end stands for higher potency in that assay, the high end for lower potency in that assay. The term Emax denotes the maximal effect, on the per cent scale that the assay sets. For `CCCN(C)CCc1c[nH]c2ccc(OC)cc12` [Compound 10, 5-MeO-MPT], at 5-HT2B, it took 100 nM to reach a half-maximal effect (EC50) and the Emax amounted to 61%. In addition, on 5-HT2A [5], the EC50 was found to be 79 nM and the Emax was determined as 89%.
In the same order, the values of `CCCN(CCC)CCc1c[nH]c2ccc(OC)cc12` [Compound 13, 5-methoxy-N,N-dipropyl-tryptamine] are 76 nM, 108%, 82 nM and 94%.
On to `COc1ccc2[nH]cc(CCN3CC=CC3)c2c1` [Compound 21, 3-(2-(2,5-dihydro-1H-pyrrol-1-yl)ethyl)-5-methoxy-1H-indole], for which the figures for the concentration for a half-maximal effect (EC50) on 5-HT1A [2] (Gi BRET EC50), on 5-HT2A [6] and on 5-HT1A [7] were 0.3 nM, 9.91 nM and 0.257 nM, respectively. Also, the “further increase in potency at 5-HT1A” value at 5-HT1A [2] (relative to 5-MeO-PyrT) is listed as around 8 fold.
On to `CCCN(CC)CCc1c[nH]c2ccc(OC)c(F)c12` [Compound 29, N-ethyl-(2-(4-fluoro-5-methoxy-1H-indol-3-yl)ethyl)propan-1-amine], for which the “microsomal stability in human microsomes” value in data set [8] is on record as “greater stability in human microsomes versus the DMT analogs”. The results for the EC50 on 5-HT2A [6], on 5-HT1A [7] and on human 5-HT1A [9] were 155 nM, 0.95 nM and 0.151 nM, respectively.
`COc1ccc2[nH]cc(CCN(C)C(C)C)c2c1F` [Compound 31, N-(2-(4-fluoro-5-methoxy-1H-indol-3-yl)ethyl)-N-methylpropan-2-amine]: the values for the 50% effective concentration (EC50) on 5-HT2A [6], at 5-HT1A [7] and on human 5-HT1A [9] were 152 nM, 14.2 nM and 2.98 nM, respectively.
For `CCCN(CCc1c[nH]c2ccc(OC)c(F)c12)C(C)C` [Compound 32, N-(2-(4-fluoro-5-methoxy-1H-indol-3-yl)ethyl)-N-isopropylpropan-1-amine], the EC50 on 5-HT2A [6] is 249 nM; on 5-HT1A [7], 16.8 nM and 16.6 nM; on human 5-HT1A [9], 5.96 nM and 5.89 nM.
Turning to `COc1ccc2[nH]cc(CCN(C(C)C)C(C)C)c2c1F` [Compound 33, N-(2-(4-fluoro-5-methoxy-1H-indol-3-yl)ethyl)-N-isopropylpropan-2-amine], the EC50 came out at 338 nM at 5-HT2A [6], 35.8 nM on 5-HT1A [7] and 6 nM at human 5-HT1A [9].
Turning to `C=CCN(C)CCc1c[nH]c2ccc(OC)c(F)c12` [Compound 34, N-(2-(4-fluoro-5-methoxy-1H-indol-3-yl)ethyl)-N-methylprop-2-en-1-amine], the “microsomal stability in human microsomes” value in data set [8] is listed as “greater stability in human microsomes versus the DMT analogs”. In addition, the EC50 on 5-HT2A [6] worked out at 156 nM; at 5-HT1A [7], 8.41 nM; at human 5-HT1A [9] it was 2.57 nM.
For the compound `COc1ccc2[nH]cc(CCN3CCCC3)c2c1F` [Compound 35, 4-fluoro-5-methoxy-3-(2-(pyrrolidin-1-yl)ethyl)-1H-indole], the EC50 was 300 nM at 5-HT2A [6]; 0.372 nM on 5-HT1A [7]; 0.03 nM and 0.0282 nM on human 5-HT1A [9].
In the case of `CN(C)CCc1c[nH]c2ccc(O)c(F)c12` [Compound 40, 3-(2-(dimethylamino)ethyl)-4-fluoro-1H-indol-5-ol], the EC50 at 5-HT1A [2] (EC50 (nM), Gi1 BRET, 5-HT1A WT) turned out to be 1.13 nM; at 5-HT2A [6], 7.46 nM; at 5-HT2A [6] (EC50 (nM), Gq BRET, 5-HT2A WT), 7.46 nM; on 5-HT1A A365N (EC50 (nM), Gi1 BRET), 5.68 nM; at 5-HT1A [7], 1.13 nM; on human 5-HT1A [9], 0.251 nM.
As for `CSc1ccc2[nH]cc(CCN(C)C)c2c1` [Compound 67, N,N-dimethyl-2-(5-(methylthio)-1H-indol-3-yl)ethan-1-amine], the EC50 on 5-HT1A [2] (EC50 (nM), Gi1 BRET, 5-HT1A WT) turned out to be 11.7 nM; at 5-HT2A [6] it was 30.1 nM; on 5-HT2A [6] (EC50 (nM), Gq BRET, 5-HT2A WT), 30.1 nM; on 5-HT1A A365N (EC50 (nM), Gi1 BRET) it was 30.5 nM; at 5-HT1A A365N (pEC50, Gi1 BRET), 30.2 nM; on 5-HT1A [7] it was 11.7 nM. The compound also came in with an EC50 at human 5-HT1A [9] of 2.01 nM.
For `CSc1ccc2[nH]cc(CCN3CCCC3)c2c1` [Compound 69, 5-(methylthio)-3-(2-(pyrrolidin-1-yl)ethyl)-1H-indole], the EC50 is 1.05 nM at 5-HT1A [2] (EC50 (nM), Gi1 BRET, 5-HT1A WT); 175 nM on 5-HT2A [6]; 175 nM at 5-HT2A [6] (EC50 (nM), Gq BRET, 5-HT2A WT); 5.08 nM on 5-HT1A A365N (EC50 (nM), Gi1 BRET); 1.05 nM at 5-HT1A [7]; 0.51 nM and 0.501 nM at human 5-HT1A [9].
On to `CN(C)CCc1c[nH]c2ccccc12` [DMT], for which, on 5-HT2A [3] (Gq BRET, 5-HT2A WT), the midpoint of the response, the EC50, lay at 94.4 nM and the pEC50 result is “(7.03,”.
Consider `COc1cc(CCN)cc(OC)c1OC` [Mescaline, reference compound], for which it took 19600 nM to reach a half-maximal effect on 5-HT1A [2] (EC50 (nM) 5-HT1A BRET Gi1, Table 6, commercial ligands) (EC50). The “Efficacy as %5HT 5-HT1A BRET Gi1” value at 5-HT1A [2] is recorded as 42.0 %5HT. Further, at 5-HT2A [3], the “efficacy at 5-HT2A” value is given as ~100 % of that of serotonin and the “Efficacy as %5HT 5-HT2A BRET Gq” value worked out at 92.6 %5HT. Also, the “relative potency at 5-HT1A and 5-HT2A” value on 5-HT2A [3] (BRET, FIG. 33A) is recorded as “more potent at 5-HT2A”. For the same compound, at 5-HT2A [6] (EC50 (nM) 5-HT2A BRET Gq, Table 6, commercial ligands), the midpoint of the response, the EC50, lay at 2400 nM.
Turning to `CC(=O)CC(c1ccccc1)c1c(O)c2ccccc2oc1=O` (stereo not drawn) [Warfarin], in [10], the “% Recovery” value came to 90.9%, the “% Unbound” value came to 6.4% and the fu was 0.064. Further, in [10] (4 h), the “% Compound remaining at 4 h” value came to 103.3%. Also, in data set [11], the “% Recovery” value was found to be 108.1%. The “% Compound remaining at 4 h” value in data set [11] (4 h) was found to be 108.8%.
For the compound `CN(C)CCc1c[nH]c2cccc(O)c12` [psilocin, Psilocin], the “efficacy at 5-HT2A” value on 5-HT2A [3] is ~50 % of that of serotonin.

The record behind these values is US20260034119A1, “5-METHOXY-N,N-[…][…], THEIR […], AND METHODS FOR TREATMENT OF NEUROLOGICAL, […], AND SUBSTANCE USE DISORDERS” (priority 2023, published 2026).
